Test results from patent US12168044B2, “Peptides and combination of peptides for use in immunotherapy against non-small cell lung cancer and other cancers” (priority 2016, dated 2024).
Each block holds one molecule with its values, some of them ahead of it.

What was measured:
[1] = test system: HLA-A*0201/Kb transgenic mice; settings: cited from earlier work
HLA-A*0201 molecule = HLA-A*0201 molecule (Homo sapiens, UniProt P04439, D140Y/D185E/D98H/E176V/E277Q/G131W/G231S/I119V/I121R/I166T/I218V/L300P/L318F/N151K/N90K/P208A/P217A/Q86G/Q94H/R138H/R169H/T345S); settings: Wu et al. 2011; cited from earlier work
HLA-A*02:01 = HLA-A*02:01 (Homo sapiens, UniProt P04439, D140Y/D185E/D98H/E176V/E277Q/G131W/G231S/I119V/I121R/I166T/I218V/L300P/L318F/N151K/N90K/P208A/P217A/Q86G/Q94H/R138H/R169H/T345S); test: Binding to HLA-A*02:01 (additional data, Example 6)
[2] = test system: T-cells of healthy donors; test: Immunogenicity and functional T-cell data (Example 6); format: cell-based, human
Method: The immunogenicity of MAG-003 was tested using protocols that mimic the manufacturing procedure for a pharmaceutical product.

[3] = test system: HLA-A*0201-positive PBMCs; settings: cited from earlier work
[4] = test system: advanced esophageal, stomach or lung cancer; settings: of 15 patients who completed one vaccination cycle; cited from earlier work

binding to HLA-A*02:01 (HLA-A*02:01): very good binding
Molecule: KVLEHVVRV (listed as Homo sapiens) [MAG-003]
elicitation of peptide-specific CTLs ([1]; HLA-A*0201/Kb transgenic mice, Jia et al. 2010): elicits peptide-specific CTLs | binding affinity and stability towards HLA-A*0201 molecule (HLA-A*0201 molecule): potent binding affinity and stability | killing of peptide loaded target cells by generated T cells [2]: able to kill peptide loaded target cells | priming of peptide-specific T-cells ([2]; healthy donors, protocols mimicking manufacturing procedure): Priming of MAG-003-specific T-cells was observed | lysis of target cells by the induced CTLs ([3]; Jia et al. 2010): lyse target cells in an HLA-A*0201-restricted fashion | elicitation of peptide-specific CTLs ([3]; in vitro from HLA-A*0201-positive PBMCs, Jia et al. 2010): elicits peptide-specific CTLs

Molecule: p286-1Y2L9L: MAG-003 variant having 3 amino acid substitutions, printed as SEQ ID NO:3 (KVLEHVVRA; listed as Homo sapiens)
induction of specific CTLs that lyse target cancer cells ([1]; HLA-A2.1/Kb transgenic mice, Wu et al. 2011): capability to induce specific CTLs | binding affinity and stability towards HLA-A*0201 molecule (HLA-A*0201 molecule): potent binding affinity and stability | induction of specific CTLs that lyse target cancer cells ([3]; PBMCs of healthy donors, Wu et al. 2011): capability to induce specific CTLs

Molecule: p286-1Y2L: MAG-003 variant having 2 amino acid substitutions, printed as SEQ ID NO:2 (KVLEHVVRL; listed as Homo sapiens)
binding affinity and stability towards HLA-A*0201 molecule (HLA-A*0201 molecule): potent binding affinity and stability

B1: MAGEA4 vaccine: MAGEA4 vaccine containing protein, given subcutaneously once every 2 weeks in six doses (Saito et al., 2014) (protein, UniProt P43358 1-317, looked up)
Melanoma-associated antigen 4: MSSEQKSQHCKPEEGVEAQEEALGLVGAQAPTTEEQEAAVSSSSPLVPGTLEEVPAAESAGPPQSPQGASALPTTISFTCWRQPNEGSSSQEEEGPSTSPDAESLFREALSNKVDELAHFLLRKYRAKELVTKAEMLERVIKNYKRCFPVIFGKASESLKMIFGIDVKEVDPASNTYTLVTCLGLSYDGLLGNNQIFPKTGLLIIVLGTIAMEGDSASEEEIWEELGVMGVYDGREHTVYGEPRKLLTQDWVQENYLEYRQVPGSNPARYEFLWGPRALAETSYVKVLEHVVRVNARVRIAYPSLREAALLEEEEGV
modifications: vaccine formulation
patients with CD4 T-cell response [4]: three | patients with CD8 T-cell response [4]: six | patients with MAGEA4-specific humoral response [4]: four
